Test results reported in patent publication US4581172A, “Substituted pyrimido[6,1-a]isoquinolin-4-ones,pyrimido[6,1-a]benzozepin-4-ones and pyrimido[6,1-a]benzodiazepin-4-ones useful for prevention of thromboses and treating hypertension” (Hoffmann-La Roche Inc., priority 1983, dated 1986).

Assays:
[1] = tested on: Human platelet-rich plasma; test: Inhibition of collagen-initiated platelet aggregation (aggregometer method); format: cell-based; details: 10 min, human citrate plasma, 10 minutes at 37° C., aggregation initiated by collagen fibrils, hydrochlorides of the products tested, read-out: EC50 (maximum aggregation velocity)
Protocol: The maximum aggregation velocity was taken as the test parameter and the effective concentration (EC50) was ascertained from dosage-activity curves. Human platelet-rich plasma was obtained by centrifugation from citrated venous blood. The experiments were carried out with suspensions of the test substances in 0.9% sodium chloride. 0.18 ml of citrate plasma was treated with a 10 μl suspension of the test compounds and the mixture was incubated at 37° C. for 10 minutes, whereupon the aggregation was initiated by the addition of 10 μl of a suspension of collagen fibrils. The following EC50 values (in μM) were ascertained for the hydrochlorides of the products of certain Examples hereinafter: […]

[2] = Acute toxicity (LD50) p.o. in mice; details: mouse, in vivo, po, hydrochloride

COc1cc2c(cc1OC)-c1cc(=Nc3c(C)cc(C)cc3C)n(C)c(=O)n1C(C)C2 (centres unmarked) [4(a), 9,10-dimethoxy-3,6-dimethyl-2-mesitylimino-2,3,6,7-tetrahydro-4H-pyrimido[6,1-a]isoquinolin-4-one]
EC50 [1]: 100 nM

COc1cc2c(cc1OC)-c1cc(=Nc3c(C)cc(C)cc3C)n(C)c(=O)n1CCC2 [5(a), 10,11-dimethoxy-2-mesitylimino-3-methyl-2,3,7,8-tetrahydro-4H,6H-pyrimido[6,1-a]benzazepin-4-one]
EC50 [1]: 120 nM

COc1cc2c(cc1OC)C(C)Cn1c-2cc(=Nc2ccccc2C)n(C)c1=O (centres unmarked) [6a) 2.]
LD50 [2]: 2500 mg/kg

COc1cc2c(cc1OC)-c1cc(Nc3c(C)cc(C)cc3C)nc(=O)n1C(C)C2 (centres unmarked) [Example 2(a), 6,7-dihydro-9,10-dimethoxy-2-mesitylamino-6-methyl-4H-pyrimido[6,1-a]isoquinolin-4-one]
EC50 [1]: 110 nM

COc1cc2c(cc1OC)C(C)Cn1c-2cc(=Nc2c(C)cc(C)cc2C)n(C)c1=O (centres unmarked) [Example 3, 9,10-dimethoxy-3,7-dimethyl-2-mesitylimino-2,3,6,7-tetrahydro-4H-pyrimido[6,1-a]isoquinolin-4-one]
EC50 [1]: 600 nM
